Experimental data from publication PMC9851200, “Multiparameter phenotypic screening for endogenous TFEB and TFE3 translocation identifies novel chemical series modulating lysosome function” (Autophagy, 2022).

Key:
endogenous TFEB = experiment: TFEB nuclear translocation, immunocytochemistry high-content imaging; format: cell-based; conditions: for TFEB %: PKIS2 primary screening; on TFEB %: test concentration or dose not given here
SH-SY5Y cells [1] = conditions: PKIS2 primary screening; for DQ Intensity: DQ Red BSA intensity; for DQ Spot: DQ Red BSA spot count
Excerpt: The PKIS2 Library was supplied by The Structural Genomics Consortium at the University of North Carolina at Chapel Hill.

PRKD3 = molecular target: T1, PRKD3 (Homo sapiens, UniProt O94806); conditions: cited from earlier work
T1 sequence (O94806 1-890): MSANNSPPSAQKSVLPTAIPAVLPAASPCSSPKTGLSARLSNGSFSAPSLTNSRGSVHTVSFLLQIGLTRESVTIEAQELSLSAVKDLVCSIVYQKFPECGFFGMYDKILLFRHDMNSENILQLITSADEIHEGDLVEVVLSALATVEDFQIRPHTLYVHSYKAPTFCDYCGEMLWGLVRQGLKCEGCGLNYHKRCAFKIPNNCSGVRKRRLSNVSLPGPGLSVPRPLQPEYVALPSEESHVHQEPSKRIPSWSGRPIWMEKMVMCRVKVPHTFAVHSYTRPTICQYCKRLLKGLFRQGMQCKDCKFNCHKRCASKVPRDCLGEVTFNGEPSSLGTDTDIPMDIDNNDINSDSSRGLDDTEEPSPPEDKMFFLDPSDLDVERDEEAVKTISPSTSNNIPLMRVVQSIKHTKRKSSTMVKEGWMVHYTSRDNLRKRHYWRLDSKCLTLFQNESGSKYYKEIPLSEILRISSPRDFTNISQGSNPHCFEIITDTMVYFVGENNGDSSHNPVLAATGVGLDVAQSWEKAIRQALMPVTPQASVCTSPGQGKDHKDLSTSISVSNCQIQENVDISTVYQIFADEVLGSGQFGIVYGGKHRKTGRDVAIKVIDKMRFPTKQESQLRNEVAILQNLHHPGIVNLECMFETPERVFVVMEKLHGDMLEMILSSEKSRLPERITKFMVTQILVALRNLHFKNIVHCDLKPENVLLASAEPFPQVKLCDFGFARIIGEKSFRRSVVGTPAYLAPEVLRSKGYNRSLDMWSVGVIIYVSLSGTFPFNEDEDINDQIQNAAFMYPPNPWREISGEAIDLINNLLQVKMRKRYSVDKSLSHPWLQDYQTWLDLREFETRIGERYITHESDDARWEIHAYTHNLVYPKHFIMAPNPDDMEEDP

JAK1(JH2) = molecular target: T2, JAK1(JH2) (Homo sapiens, UniProt P23458); conditions: cited from earlier work
T2 construct: JAK1(JH2)

BMPR1B = BMPR1B (Homo sapiens, UniProt O00238); conditions: cited from earlier work
SH-SY5Y cells [2] = experiment: Nuclear count from microscopy images (cellular growth and toxicity); conditions: PKIS2 primary screening; further: reference of the scale not given here
TGFBR1 = molecular target: T3, TGFBR1 (Homo sapiens, UniProt P36897); conditions: cited from earlier work
T3 sequence (P36897 34-503): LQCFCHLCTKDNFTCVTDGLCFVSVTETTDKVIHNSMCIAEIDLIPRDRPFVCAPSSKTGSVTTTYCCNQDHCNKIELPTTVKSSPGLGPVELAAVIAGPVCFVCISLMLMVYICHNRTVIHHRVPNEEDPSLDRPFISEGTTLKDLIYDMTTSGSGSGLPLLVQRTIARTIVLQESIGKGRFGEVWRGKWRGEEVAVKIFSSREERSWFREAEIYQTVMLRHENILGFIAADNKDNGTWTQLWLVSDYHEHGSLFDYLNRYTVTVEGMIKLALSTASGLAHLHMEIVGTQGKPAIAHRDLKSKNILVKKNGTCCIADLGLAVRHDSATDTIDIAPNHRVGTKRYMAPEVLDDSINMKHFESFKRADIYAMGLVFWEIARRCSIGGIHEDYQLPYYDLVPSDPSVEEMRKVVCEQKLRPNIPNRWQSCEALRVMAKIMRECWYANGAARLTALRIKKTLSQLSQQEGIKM

MAPK10/JNK3 = MAPK10/JNK3 (Homo sapiens, UniProt P53779); conditions: cited from earlier work
MAPK9/JNK2 = MAPK9/JNK2 (Homo sapiens, UniProt P45984); conditions: cited from earlier work
STK10/LOK = STK10/LOK (Homo sapiens, UniProt O94804); conditions: cited from earlier work
MINK1/MINK = MINK1/MINK (Homo sapiens, UniProt Q8N4C8); conditions: cited from earlier work
ALK5/TGFBR1 = conditions: cited from earlier work
Wherever DQ Intensity is given: reference of the scale not given here.
Wherever DQ Spot is given: reference of the scale not given here.

MAPK10/JNK3, sequence (P53779 whole entry): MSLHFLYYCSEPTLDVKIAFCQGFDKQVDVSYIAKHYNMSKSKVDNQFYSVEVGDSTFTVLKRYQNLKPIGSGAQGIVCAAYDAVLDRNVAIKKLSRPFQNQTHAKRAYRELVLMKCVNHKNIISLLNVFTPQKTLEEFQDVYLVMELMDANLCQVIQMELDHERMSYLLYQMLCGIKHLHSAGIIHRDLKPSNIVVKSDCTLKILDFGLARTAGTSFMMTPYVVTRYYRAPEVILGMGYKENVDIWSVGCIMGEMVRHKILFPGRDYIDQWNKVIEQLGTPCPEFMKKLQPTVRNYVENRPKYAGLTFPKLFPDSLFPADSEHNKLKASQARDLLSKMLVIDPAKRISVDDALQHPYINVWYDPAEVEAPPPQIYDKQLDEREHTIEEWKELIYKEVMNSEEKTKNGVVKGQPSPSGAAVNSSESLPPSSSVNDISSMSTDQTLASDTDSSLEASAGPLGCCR
MINK1/MINK, sequence (Q8N4C8 whole entry): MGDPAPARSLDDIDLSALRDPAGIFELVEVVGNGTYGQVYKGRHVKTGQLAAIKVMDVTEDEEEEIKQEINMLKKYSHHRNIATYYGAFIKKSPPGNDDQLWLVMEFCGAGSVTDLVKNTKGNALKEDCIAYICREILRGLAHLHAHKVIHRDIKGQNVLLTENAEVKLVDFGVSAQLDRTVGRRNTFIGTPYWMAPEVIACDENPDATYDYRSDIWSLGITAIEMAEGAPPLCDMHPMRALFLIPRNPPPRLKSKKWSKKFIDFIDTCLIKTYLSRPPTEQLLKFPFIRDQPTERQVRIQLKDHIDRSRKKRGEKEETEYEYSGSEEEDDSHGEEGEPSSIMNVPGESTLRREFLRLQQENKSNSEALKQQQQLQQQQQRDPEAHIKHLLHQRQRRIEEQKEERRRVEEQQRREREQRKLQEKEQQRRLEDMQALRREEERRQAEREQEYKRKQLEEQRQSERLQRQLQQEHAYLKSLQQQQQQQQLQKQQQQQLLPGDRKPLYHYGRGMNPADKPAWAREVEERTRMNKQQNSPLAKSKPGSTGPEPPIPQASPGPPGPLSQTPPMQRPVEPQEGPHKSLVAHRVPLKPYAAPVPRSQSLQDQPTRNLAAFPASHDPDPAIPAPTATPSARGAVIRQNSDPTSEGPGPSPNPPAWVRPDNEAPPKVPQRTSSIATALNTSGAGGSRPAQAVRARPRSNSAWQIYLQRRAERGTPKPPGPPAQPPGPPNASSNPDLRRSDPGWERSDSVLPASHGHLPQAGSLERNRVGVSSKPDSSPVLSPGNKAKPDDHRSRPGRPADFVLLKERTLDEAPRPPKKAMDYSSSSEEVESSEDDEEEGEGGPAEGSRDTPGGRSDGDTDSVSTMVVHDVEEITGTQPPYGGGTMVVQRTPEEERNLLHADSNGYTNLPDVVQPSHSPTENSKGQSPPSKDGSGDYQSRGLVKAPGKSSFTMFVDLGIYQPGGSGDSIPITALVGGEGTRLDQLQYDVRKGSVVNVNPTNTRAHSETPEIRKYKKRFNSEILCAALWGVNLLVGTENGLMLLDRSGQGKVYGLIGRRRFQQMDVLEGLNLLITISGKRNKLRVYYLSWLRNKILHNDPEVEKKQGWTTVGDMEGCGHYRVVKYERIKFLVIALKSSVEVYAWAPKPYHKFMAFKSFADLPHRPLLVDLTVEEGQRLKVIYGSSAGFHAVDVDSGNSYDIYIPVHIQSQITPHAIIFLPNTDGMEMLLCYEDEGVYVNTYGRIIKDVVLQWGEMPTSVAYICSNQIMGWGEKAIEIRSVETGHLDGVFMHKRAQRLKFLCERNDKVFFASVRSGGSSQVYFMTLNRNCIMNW
MAPK9/JNK2, sequence (P45984 whole entry): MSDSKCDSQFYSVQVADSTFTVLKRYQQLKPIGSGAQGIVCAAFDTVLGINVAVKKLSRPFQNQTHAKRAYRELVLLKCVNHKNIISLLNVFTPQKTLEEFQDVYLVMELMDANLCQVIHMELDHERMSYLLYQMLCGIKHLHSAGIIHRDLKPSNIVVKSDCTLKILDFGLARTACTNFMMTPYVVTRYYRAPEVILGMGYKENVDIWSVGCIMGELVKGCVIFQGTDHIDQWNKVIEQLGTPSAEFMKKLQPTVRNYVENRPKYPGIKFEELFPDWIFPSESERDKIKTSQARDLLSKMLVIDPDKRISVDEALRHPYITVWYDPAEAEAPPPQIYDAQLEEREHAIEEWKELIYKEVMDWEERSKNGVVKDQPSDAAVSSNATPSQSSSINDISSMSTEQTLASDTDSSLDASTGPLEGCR
T2 sequence (P23458 583-855 limits assumed): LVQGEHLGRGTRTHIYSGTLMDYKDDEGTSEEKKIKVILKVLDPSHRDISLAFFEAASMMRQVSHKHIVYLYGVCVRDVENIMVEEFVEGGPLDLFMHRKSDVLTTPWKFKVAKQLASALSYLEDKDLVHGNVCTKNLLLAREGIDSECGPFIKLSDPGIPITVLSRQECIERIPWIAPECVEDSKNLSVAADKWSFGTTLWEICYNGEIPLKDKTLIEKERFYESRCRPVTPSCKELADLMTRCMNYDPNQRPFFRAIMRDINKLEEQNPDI
BMPR1B, sequence (O00238 14-502): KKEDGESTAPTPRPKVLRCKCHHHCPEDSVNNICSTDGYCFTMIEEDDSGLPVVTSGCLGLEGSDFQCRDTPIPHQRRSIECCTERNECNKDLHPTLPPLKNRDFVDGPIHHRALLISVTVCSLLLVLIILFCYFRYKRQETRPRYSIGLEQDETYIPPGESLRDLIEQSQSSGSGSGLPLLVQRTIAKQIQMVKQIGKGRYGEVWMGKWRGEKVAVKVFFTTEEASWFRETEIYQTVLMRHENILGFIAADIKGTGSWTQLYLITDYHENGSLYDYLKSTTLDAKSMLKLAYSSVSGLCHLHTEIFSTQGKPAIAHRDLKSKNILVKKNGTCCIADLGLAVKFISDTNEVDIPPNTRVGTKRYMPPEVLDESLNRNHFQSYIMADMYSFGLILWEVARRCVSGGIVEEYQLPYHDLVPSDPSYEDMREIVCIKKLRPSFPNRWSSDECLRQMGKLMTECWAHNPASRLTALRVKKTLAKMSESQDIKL
STK10/LOK, sequence (O94804 whole entry): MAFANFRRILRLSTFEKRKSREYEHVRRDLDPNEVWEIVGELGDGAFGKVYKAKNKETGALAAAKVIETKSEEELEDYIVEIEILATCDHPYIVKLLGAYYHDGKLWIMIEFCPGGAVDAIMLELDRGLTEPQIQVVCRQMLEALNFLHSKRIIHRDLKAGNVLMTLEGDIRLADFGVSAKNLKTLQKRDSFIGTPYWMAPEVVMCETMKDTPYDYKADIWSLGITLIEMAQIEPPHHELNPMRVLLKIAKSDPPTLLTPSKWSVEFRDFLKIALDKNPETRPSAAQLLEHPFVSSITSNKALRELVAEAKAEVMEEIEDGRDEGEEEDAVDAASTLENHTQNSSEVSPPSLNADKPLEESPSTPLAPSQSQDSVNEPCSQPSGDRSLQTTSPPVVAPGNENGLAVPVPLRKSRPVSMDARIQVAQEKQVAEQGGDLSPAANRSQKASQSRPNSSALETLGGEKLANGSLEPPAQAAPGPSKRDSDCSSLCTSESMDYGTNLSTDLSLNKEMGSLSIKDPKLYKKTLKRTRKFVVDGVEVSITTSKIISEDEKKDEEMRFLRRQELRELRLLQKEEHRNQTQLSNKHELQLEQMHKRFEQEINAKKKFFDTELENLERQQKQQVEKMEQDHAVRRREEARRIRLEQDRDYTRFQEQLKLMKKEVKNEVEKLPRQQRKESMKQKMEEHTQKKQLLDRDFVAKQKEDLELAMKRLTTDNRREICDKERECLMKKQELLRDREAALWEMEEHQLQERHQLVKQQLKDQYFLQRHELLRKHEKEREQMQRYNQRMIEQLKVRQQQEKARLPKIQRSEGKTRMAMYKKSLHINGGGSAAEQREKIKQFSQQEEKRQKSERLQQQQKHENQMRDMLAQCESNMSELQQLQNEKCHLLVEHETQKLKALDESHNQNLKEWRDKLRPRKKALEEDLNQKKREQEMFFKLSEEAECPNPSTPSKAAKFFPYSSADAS

Row | Compound | TFEB % (endogenous TFEB) [%] | DQ Intensity (SH-SY5Y cells [1]) | DQ Spot (SH-SY5Y cells [1]) | KINOMEscan binding PRKD3 (PRKD3) [%] | KINOMEscan binding JAK1(JH2) (JAK1(JH2)) [%] | KINOMEscan binding BMPR1B (BMPR1B) [%] | Nuclear Count (SH-SY5Y cells [2]) | KINOMEscan binding TGFBR1 (TGFBR1) [%] | KINOMEscan binding MAPK10/JNK3 (MAPK10/JNK3) [%] | KINOMEscan binding MAPK9/JNK2 (MAPK9/JNK2) [%] | KINOMEscan binding STK10/LOK (STK10/LOK) [%] | KINOMEscan binding MINK1/MINK (MINK1/MINK) [%] | TGFBR1 binding (ALK5/TGFBR1) [µM] | TFEB translocation (in words) (endogenous TFEB; SH-SY5Y, 24 h treatment) | KINOMEscan PRKD3 (PRKD3; kinase PRKD3, Published KINOMEscan, ref original PKIS2 published data) | KINOMEscan JAK1(JH2domain-pseudokinase) (JAK1(JH2); JAK1(JH2domain-pseudokinase), Published KINOMEscan, ref original PKIS2 published data) | KINOMEscan BMPR1B (BMPR1B; BMPR1B, Published KINOMEscan, ref original PKIS2 published data)
1 | Cc1cccc(-c2cc(Nc3ccncc3)c3ccccc3n2)n1 [GSK223675] | 7.90 | 136.99 | 120.77 | 100 | 5 | 0 | 85.07 | – | – | – | – | – | – | – | – | – | –
2 | Cc1cccc(-c2nc(Nc3cccc(C(N)=O)c3)c3ccccc3n2)n1 [GW876019] | 7.94 | 115.76 | 107.41 | 87 | 78 | 0 | 75.33 | – | – | – | – | – | – | – | – | – | –
3 | Cc1cccc(-c2nc(Nc3ccncc3)c3sccc3n2)n1 [GW869641] | 20.32 | 90.97 | 102.97 | 90.7 | 90.2 | 82 | 70.17 | – | – | – | – | – | – | – | – | – | –
4 | Cc1cccc(-c2nc(Nc3ccc4c(cnn4C)c3)c3ccccc3n2)n1 [GW876731] | 18.65 | 96.16 | 100.57 | 90.2 | 16 | 0 | 107.18 | – | – | – | – | – | – | – | – | – | –
5 | Cc1cccc(-c2nc(Nc3ccc4nn[nH]c4c3)c3ccccc3n2)n1 [GW867587] | 14.22 | 114.16 | 102.41 | 66 | 52 | 0 | 123.89 | 32 | 0 | 0 | 0 | 0 | 0.59 | – | – | – | –
6 | Cc1cccc(-c2nc(Nc3ccncc3)c3ccccc3n2)n1 [GW855857] | 6.50 | 79.80 | 95.73 | 69 | 74 | 29 | 124.29 | – | – | – | – | – | – | – | – | – | –
7 | COc1ccc2nc(-c3cccc(C)n3)nc(Nc3ccncc3)c2c1 [GSK204919] | 4.22 | 144.99 | 139.38 | 100 | 80 | 0 | 98.76 | – | 36 | 60 | 0 | 30 | – | did not show TFEB and TFE3 activation | – | – | –
8 | Clc1cccc(-c2nc(Nc3ccncc3)c3ccccc3n2)c1 [GW873004] | 4.68 | 102.26 | 118.51 | 44 | 16 | 4 | 66.61 | – | – | – | – | – | 0.65 | – | – | – | –
9 | Cc1cc(Nc2nc(-c3cccc(C)n3)nc3ccccc23)ccn1 [GW872411] | 5.91 | 103.32 | 114.14 | 76 | 81 | 0 | 94.17 | 83 | 0 | 14 | 0 | 1 | – | – | – | – | –
10 | Cc1cccc(-c2nc(Nc3ccc4ncsc4c3)c3ccccc3n2)n1 [GW867588] | 27.23 | 95.27 | 103.18 | 66 | 62 | 0 | 62.46 | 55 | 0 | 8 | 27 | 0 | – | – | – | – | –
11 | Cc1ccc(-c2nc(Nc3ccncc3)c3ccccc3n2)s1 [GSK189015] | 4.14 | 116.90 | 105.30 | 22 | 38 | 0 | 75.74 | 6 | 14 | 19 | 1 | 2 | – | – | – | – | –
12 | Cc1csc(-c2nc(Nc3ccncc3)c3ccccc3n2)n1 [GW869640] | 2.75 | 86.86 | 102.29 | 71 | 74 | 42 | 81.77 | – | – | – | – | – | – | – | – | – | –
13 | Cc1cccc(-c2nc(Nc3ccncc3)c3ccccc3n2)n1 [NK215] | – | – | – | – | – | – | – | – | – | – | – | – | – | – | 69 | 74 | 29
